Measured values from ChEMBL document CHEMBL1201862, “PubChem BioAssay data set” (2004).
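Growth conditions: 96-well plates. Treatment: test compound, 48 hours, 5 concentrations. Analysis: linear interpolation between bracketing concentrations; unreached endpoints set to highest concentration. GI50 = concentration required for 50% inhibition of growth.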 Calls of active or inactive are those of the source. No stated cut-off is given here; in the data, active = GI50 up to about 1.1 µM and inactive = higher.

Columns and labels:
Assay in all cases: DTP human tumour cell line panel, 48 h
TK-10 = system: TK-10
MOLT-4 = system: MOLT-4
M14 = system: M14
786-0 = system: 786-0
UACC-257 = system: UACC-257
CCRF-CEM = system: CCRF-CEM
HCT-116 = system: HCT-116
SK-OV-3 = system: SK-OV-3
HOP-62 = system: HOP-62
HCC 2998 = system: HCC 2998
SK-MEL-28 = system: SK-MEL-28
NCI-H460 = system: NCI-H460
RPMI-8226 = system: RPMI-8226
A549 = system: A549
MCF7 = system: MCF7
HOP-92 = system: HOP-92
U-251 = system: U-251
OVCAR-8 = system: OVCAR-8
UO-31 = system: UO-31
SR = system: SR

Measured: GI50

CCCCCCCCCCOC1C(C(C)OCCCN(C)C)OC2OC3(CCCCC3)OC21 (stereo not drawn)
inactive: TK-10 23.1 µM | MOLT-4 12.9 µM | M14 3.33 µM | 786-0 16.5 µM | UACC-257 20.8 µM | CCRF-CEM 10.7 µM | HCT-116 13.4 µM | SK-OV-3 18.5 µM | HOP-62 16.4 µM | HCC 2998 13.3 µM | SK-MEL-28 12.2 µM | NCI-H460 3.08 µM | RPMI-8226 4.32 µM | A549 15.4 µM | MCF7 26.2 µM | HOP-92 3.4 µM | U-251 14.5 µM | OVCAR-8 18.8 µM | UO-31 17.9 µM

CC(=O)N(CN1C(=O)CCC1C(=O)O)c1ccccc1Cl (stereo not drawn)
inactive: TK-10 > 100 µM | MOLT-4 > 100 µM | M14 > 100 µM | 786-0 > 100 µM | UACC-257 > 100 µM | CCRF-CEM > 100 µM | HCT-116 > 100 µM | SK-OV-3 > 100 µM | HOP-62 > 100 µM | HCC 2998 > 100 µM | SK-MEL-28 > 100 µM | NCI-H460 > 100 µM | RPMI-8226 > 100 µM | A549 > 100 µM | MCF7 > 100 µM | HOP-92 > 100 µM | U-251 > 100 µM | OVCAR-8 > 100 µM | UO-31 > 100 µM

Nc1nc(SCC(=O)O)nc(O)c1N
inactive: TK-10 > 100 µM | MOLT-4 37.6 µM | M14 > 100 µM | 786-0 41.6 µM | UACC-257 70.5 µM | CCRF-CEM 1.32 µM | HCT-116 35.6 µM | SK-OV-3 > 100 µM | HOP-62 > 100 µM | SK-MEL-28 > 100 µM | SR 22.6 µM | NCI-H460 > 100 µM | RPMI-8226 32.7 µM | A549 > 100 µM | MCF7 > 100 µM | HOP-92 > 100 µM | U-251 > 100 µM | OVCAR-8 78.5 µM | UO-31 > 100 µM

Cc1ccc(/C=N/n2c(=O)[nH]c3ccccc3c2=O)cc1
inactive: TK-10 > 100 µM | MOLT-4 > 100 µM | M14 > 100 µM | 786-0 > 100 µM | UACC-257 > 100 µM | CCRF-CEM > 100 µM | HCT-116 > 100 µM | SK-OV-3 > 100 µM | HOP-62 > 100 µM | SK-MEL-28 > 100 µM | SR > 100 µM | NCI-H460 > 100 µM | RPMI-8226 > 100 µM | A549 > 100 µM | MCF7 > 100 µM | HOP-92 > 100 µM | U-251 > 100 µM | UO-31 > 100 µM

NC(=S)Nc1nc(=S)[nH]c2c1SC1=N/C(=C\c3ccco3)C(=O)N12
inactive: TK-10 > 100 µM | MOLT-4 44.1 µM | M14 > 60.7 µM | 786-0 > 100 µM | UACC-257 > 100 µM | CCRF-CEM 38.2 µM | HCT-116 > 96.2 µM | SK-OV-3 > 100 µM | HOP-62 > 100 µM | SK-MEL-28 > 100 µM | SR 21.1 µM | NCI-H460 68.7 µM | RPMI-8226 29.3 µM | A549 > 100 µM | MCF7 29.1 µM | HOP-92 > 100 µM | U-251 > 100 µM | OVCAR-8 > 100 µM | UO-31 > 100 µM

COc1ccc(-c2nc(O)c3ccccc3n2)cc1
inactive: TK-10 > 100 µM | MOLT-4 > 100 µM | M14 > 100 µM | 786-0 48.3 µM | UACC-257 > 100 µM | CCRF-CEM > 100 µM | HCT-116 77.1 µM | SK-OV-3 > 100 µM | HOP-62 > 100 µM | SK-MEL-28 43.6 µM | SR 45.4 µM | RPMI-8226 > 100 µM | A549 > 100 µM | MCF7 35.9 µM | HOP-92 > 100 µM | U-251 24.8 µM | OVCAR-8 32.4 µM | UO-31 > 100 µM

Cc1ccc(C[N+](C)(C)N)cc1C
inactive: TK-10 > 10 µM | MOLT-4 > 10 µM | M14 > 10 µM | 786-0 > 10 µM | UACC-257 > 10 µM | CCRF-CEM > 10 µM | HCT-116 > 10 µM | SK-OV-3 > 10 µM | HOP-62 > 10 µM | HCC 2998 > 10 µM | SK-MEL-28 > 10 µM | NCI-H460 > 10 µM | RPMI-8226 > 10 µM | A549 > 10 µM | MCF7 > 10 µM | HOP-92 > 10 µM | U-251 > 10 µM | OVCAR-8 > 10 µM | UO-31 > 10 µM

NC12c3c4cccc3Oc3cccc(c31)Oc1cccc(c12)O4
inactive: MOLT-4 > 50 µM | M14 > 50 µM | 786-0 > 50 µM | UACC-257 > 50 µM | CCRF-CEM > 50 µM | HCT-116 > 50 µM | SK-OV-3 > 50 µM | HOP-62 > 50 µM | SK-MEL-28 > 50 µM | SR > 50 µM | NCI-H460 > 50 µM | RPMI-8226 > 50 µM | A549 > 50 µM | MCF7 > 50 µM | HOP-92 > 50 µM | U-251 > 50 µM | OVCAR-8 > 50 µM | UO-31 > 50 µM

Cc1ccc(SCN2CCCCC2)cc1.O=C(Cl)c1ccc([N+](=O)[O-])cc1
inactive: TK-10 19.4 µM | MOLT-4 3.37 µM | M14 17.8 µM | 786-0 15.1 µM | UACC-257 14.6 µM | CCRF-CEM 2.03 µM | HCT-116 10.9 µM | SK-OV-3 12.9 µM | HOP-62 16.2 µM | SK-MEL-28 13.4 µM | SR 4.24 µM | RPMI-8226 5.78 µM | A549 21.2 µM | MCF7 6.55 µM | HOP-92 9.18 µM | U-251 11.2 µM | OVCAR-8 25.9 µM | UO-31 15.2 µM

CC1OC(OC2C(O[C@H]3CC[C@@]4(C)C(=CC[C@H]5[C@@H]6C[C@@H]7O[C@]8(CC[C@@H](CO)CO8)[C@@H](C)[C@@H]7[C@@]6(C)CC[C@@H]54)C3)OC(CO)C(O)C2OC2OC(CO)C(O)C(O)C2O)C(O)C(O)C1O (stereo partly drawn)
inactive: TK-10 1.71 µM | M14 2.04 µM | 786-0 1.9 µM | UACC-257 1.77 µM | HCT-116 1.65 µM | SK-OV-3 2.62 µM | HOP-62 1.72 µM | HCC 2998 1.62 µM | SK-MEL-28 1.95 µM | NCI-H460 1.78 µM | RPMI-8226 1.94 µM | A549 2.07 µM | MCF7 1.77 µM | HOP-92 1.76 µM | U-251 1.79 µM | OVCAR-8 1.78 µM | UO-31 2.52 µM

C[N+]1(C)C2Cc3ccccc3C1Cc1ccccc12
inactive: TK-10 > 100 µM | MOLT-4 > 100 µM | M14 > 100 µM | 786-0 > 100 µM | UACC-257 > 100 µM | CCRF-CEM > 100 µM | HCT-116 > 100 µM | SK-OV-3 > 100 µM | HOP-62 > 100 µM | HCC 2998 > 100 µM | SK-MEL-28 > 100 µM | NCI-H460 > 100 µM | RPMI-8226 62.7 µM | A549 > 100 µM | MCF7 > 100 µM | HOP-92 61.1 µM | U-251 > 100 µM | OVCAR-8 > 100 µM | UO-31 > 100 µM
